Reference: ChEMBL document CHEMBL4616599, “Molecular mechanism of C-phycocyanin induced apoptosis in LNCaP cells” (Bioorg Med Chem, 2020)
Active and inactive are the calls of the source. The calls are words filed in the database; no cut-off is given here.

Columns and labels:
LNCaP [1] = experiment: Up regulation of BAG1 gene expression in human LNCAP cells at 500 ug/ml measured after 24 hrs by RT profile PCR analysis relative to control; type: functional
LNCaP [2] = experiment: Induction of apoptosis against human LNCAP cells assessed as down regulation of survivin expression at 500 ug/ml measured after 24 hrs by Western blot analysis; type: functional, cell-based
LNCaP [3] = experiment: Down regulation of IGF1R gene expression in human LNCAP cells at 500 ug/ml measured after 24 hrs by RT profile PCR analysis relative to control; type: functional
LNCaP [4] = experiment: Induction of apoptosis in human LNCAP cells assessed as up regulation of pro-apoptotic protein Apaf-1 expression at 500 ug/ml measured after 24 hrs in presence of topotecan by Western blot analysis; type: functional, cell-based
LNCaP [5] = experiment: Induction of apoptosis in human LNCAP cells assessed as up regulation of p53 expression at 500 ug/ml measured after 24 hrs in presence of topotecan by immunoblot analysis; type: functional, cell-based
LNCaP [6] = experiment: Induction of apoptosis in human LNCAP cells assessed as up regulation of p21 expression at 500 ug/ml measured after 24 hrs by immunoblot analysis; type: functional, cell-based
LNCaP [7] = experiment: Induction of DNA fragmentation in human LNCAP cells at 500 ug/ml measured after 24 hrs in presence of topotecan by agarose gel electrophoresis; type: functional, cell-based
LNCaP [8] = experiment: Induction of apoptosis in human LNCAP cells assessed as up regulation of pro-apoptotic protein Apaf-1 expression at 500 ug/ml measured after 24 hrs by Western blot analysis; type: functional, cell-based
[9] = Drug uptake in plasma membrane of human LNCAP cells at 250 to 500 ug/ml incubated for 12 hrs followed by 3 times washout by fluorescence microscopic analysis; type: ADME, cell membranes
LNCaP [10] = experiment: Induction of apoptosis in human LNCAP cells assessed as decrease in uncleaved PARP expression at 500 ug/ml measured after 24 hrs in presence of topotecan by Western blot analysis; type: functional, cell-based
LNCaP [11] = experiment: Induction of apoptosis in human LNCAP cells assessed as increase in caspase 9 activity at 500 ug/ml measured after 24 hrs in presence of topotecan by Ac-LEHD-pNA substrate based colorimetric assay; type: functional, cell-based
LNCaP [12] = experiment: Up regulation of TNFRSF10A gene expression in human LNCAP cells at 500 ug/ml measured after 24 hrs by RT profile PCR analysis relative to control; type: functional
LNCaP [13] = experiment: Up regulation of GADD45A gene expression in human LNCAP cells at 500 ug/ml measured after 24 hrs by RT profile PCR analysis relative to control; type: functional
LNCaP [14] = experiment: Induction of apoptosis in human LNCAP cells assessed as increase in cleaved PARP expression at 500 ug/ml measured after 24 hrs in presence of topotecan by Western blot analysis; type: functional, cell-based
LNCaP [15] = experiment: Induction of apoptosis in human LNCAP cells assessed as increase in caspase 9 activity at 500 ug/ml measured after 24 hrs by Ac-LEHD-pNA substrate based colorimetric assay; type: functional, cell-based
LNCaP [16] = experiment: Up regulation of BAX gene expression in human LNCAP cells at 500 ug/ml measured after 24 hrs by RT profile PCR analysis relative to control; type: functional
LNCaP [17] = experiment: Down regulation of AKT1 gene expression in human LNCAP cells at 500 ug/ml measured after 24 hrs by RT profile PCR analysis relative to control; type: functional
[18] = Drug uptake in plasma membrane of human LNCAP cells at 250 to 500 ug/mL incubated for 12 hrs followed by single washout by fluorescence microscopic analysis; type: ADME, cell membranes
LNCaP [19] = experiment: Induction of DNA fragmentation in human LNCAP cells at 500 ug/ml measured after 24 hrs by agarose gel electrophoresis; type: functional, cell-based
LNCaP [20] = experiment: Cytotoxicity against human LNCAP cells assessed as reduction in cell viability at 500 ug/mL after 24 hrs by trypan blue dye exclusion assay; type: functional, cell-based
LNCaP [21] = experiment: Induction of apoptosis in human LNCAP cells assessed as increase in FAS expression at 500 ug/ml measured after 24 hrs by Western blot analysis; type: functional, cell-based
LNCaP [22] = experiment: Induction of apoptosis in human LNCAP cells assessed as up regulation of p21 expression at 500 ug/ml measured after 24 hrs in presence of topotecan by immunoblot analysis; type: functional, cell-based
LNCaP [23] = experiment: Induction of apoptosis in human LNCAP cells assessed as down regulation of Bcl2 expression at 500 ug/ml measured after 24 hrs by Western blot analysis; type: functional, cell-based
LNCaP [24] = experiment: Induction of apoptosis in human LNCAP cells assessed as up regulation of cleaved caspase 3 expression at 500 ug/ml measured after 24 hrs by Western blot analysis; type: functional, cell-based
LNCaP [25] = experiment: Induction of apoptosis in human LNCAP cells assessed as down regulation of Bcl2 expression at 500 ug/ml measured after 24 hrs in presence of topotecan by Western blot analysis; type: functional, cell-based
LNCaP [26] = experiment: Induction of apoptosis in human LNCAP cells assessed as up regulation of p53 expression at 500 ug/ml measured after 24 hrs by immunoblot analysis; type: functional, cell-based
LNCaP [27] = experiment: Induction of apoptosis in human LNCAP cells assessed as increase in caspase 3 activity at 500 ug/ml measured after 24 hrs in presence of topotecan by Ac-DEVD-pNA substrate based colorimetric assay; type: functional, cell-based
LNCaP [28] = experiment: Induction of apoptosis in human LNCAP cells assessed as decrease in uncleaved PARP expression at 500 ug/ml measured after 24 hrs by Western blot analysis; type: functional, cell-based
LNCaP [29] = experiment: Induction of apoptosis in human LNCAP cells assessed as increase in FAS expression at 500 ug/ml measured after 24 hrs in presence of topotecan by Western blot analysis; type: functional, cell-based
LNCaP [30] = experiment: Up regulation of TNFRSF1B gene expression in human LNCAP cells at 500 ug/ml measured after 24 hrs by RT profile PCR analysis relative to control; type: functional
[31] = target: T1, Tumor necrosis factor receptor superfamily member 6 (Homo sapiens) (UniProt P25445); experiment: Activation of FAS receptor in human LNCAP cells assessed as increase in caspase 8 activity at 500 ug/ml measured after 24 hrs by Ac-IETD-pNA substrate based colorimetric assay; type: cell-based
T1 sequence (whole entry): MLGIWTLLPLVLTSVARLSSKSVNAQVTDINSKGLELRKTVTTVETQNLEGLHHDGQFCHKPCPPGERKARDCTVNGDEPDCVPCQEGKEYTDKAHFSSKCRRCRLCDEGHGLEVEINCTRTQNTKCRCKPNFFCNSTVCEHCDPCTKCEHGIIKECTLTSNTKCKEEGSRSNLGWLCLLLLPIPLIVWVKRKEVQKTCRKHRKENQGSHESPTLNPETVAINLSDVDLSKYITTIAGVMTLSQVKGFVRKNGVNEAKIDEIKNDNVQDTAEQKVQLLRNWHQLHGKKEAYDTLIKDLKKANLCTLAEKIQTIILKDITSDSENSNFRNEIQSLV

LNCaP [32] = experiment: Induction of apoptosis in human LNCAP cells assessed as increase in cleaved PARP expression at 500 ug/ml measured after 24 hrs by western blot analysis; type: functional, cell-based
LNCaP [33] = experiment: Up regulation of CASP8 gene expression in human LNCAP cells at 500 ug/ml measured after 24 hrs by RT profile PCR analysis relative to control; type: functional
LNCaP [34] = experiment: Induction of apoptosis in human LNCAP cells assessed as Bax/Bcl2 ratio at 500 ug/ml measured after 24 hrs in presence of topotecan by Western blot analysis; type: functional
LNCaP [35] = experiment: Induction of apoptosis in human LNCAP cells assessed as down regulation of Mcl-1 expression at 500 ug/ml measured after 24 hrs by Western blot analysis; type: functional, cell-based
[36] = target: T1, Tumor necrosis factor receptor superfamily member 6 (Homo sapiens); experiment: Activation of FAS receptor in human LNCAP cells assessed as increase in caspase 8 activity at 500 ug/ml measured after 24 hrs in presence of topotecan by Ac-IETD-pNA substrate based colorimetric assay; type: cell-based
LNCaP [37] = experiment: Cytotoxicity against human LNCAP cells assessed as reduction in cell viability at 500 ug/ml measured after 24 hrs in presence of topotecan by trypan blue dye exclusion test relative to control; type: functional
[38] = Drug uptake in cytoplasm of human LNCAP cells at 250 to 500 ug/mL incubated for 12 hrs followed by single compound washout by fluorescence microscopic analysis; type: ADME, subcellular
LNCaP [39] = experiment: Up regulation of TNFRSF1OB gene expression in human LNCAP cells at 500 ug/ml measured after 24 hrs by RT profile PCR analysis relative to control; type: functional
LNCaP [40] = experiment: Induction of apoptosis in human LNCAP cells assessed as up regulation of cleaved caspase 3 expression at 500 ug/ml measured after 24 hrs in presence of topotecan by Western blot analysis; type: functional, cell-based
LNCaP [41] = experiment: Induction of apoptosis in human LNCAP cells assessed as down regulation of survivin expression at 500 ug/ml measured after 24 hrs in presence of topotecan by Western blot analysis; type: functional, cell-based
LNCaP [42] = experiment: Induction of apoptosis in human LNCAP cells assessed as increase in caspase 3 activity at 500 ug/ml measured after 24 hrs by Ac-DEVD-pNA substrate based colorimetric assay; type: functional, cell-based
LNCaP [43] = experiment: Induction of apoptosis in human LNCAP cells assessed as down regulation of Mcl-1 expression at 500 ug/ml measured after 24 hrs in presence of topotecan by Western blot analysis; type: functional, cell-based
LNCaP [44] = experiment: Down regulation of BCL2 gene expression in human LNCAP cells at 500 ug/ml measured after 24 hrs by RT profile PCR analysis relative to control; type: functional
LNCaP [45] = experiment: Down regulation of BIRC5 gene expression in human LNCAP cells at 500 ug/ml measured after 24 hrs by RT profile PCR analysis relative to control; type: functional
LNCaP [46] = experiment: Induction of apoptosis in 3 hrs FAS inhibitor KP7-6 treated human LNCAP cells assessed as increase in caspase 8 activity at 500 ug/ml measured after 24 hrs by Ac-IETD-pNA substrate based colorimetric assay; type: functional, cell-based
LNCaP [47] = experiment: Up regulation of TP73 gene expression in human LNCAP cells at 500 ug/ml measured after 24 hrs by RT profile PCR analysis relative to control; type: functional
LNCaP [48] = experiment: Induction of apoptosis in human LNCAP cells assessed as Bax/Bcl2 ratio at 500 ug/ml measured after 24 hrs by Western blot analysis; type: functional
LNCaP [49] = experiment: Up regulation of FAS gene expression in human LNCAP cells at 500 ug/ml measured after 24 hrs by RT profile PCR analysis relative to control; type: functional
LNCaP [50] = experiment: Induction of apoptosis in human LNCAP cells assessed as up regulation of pro-apoptotic protein Bax expression at 500 ug/ml measured after 24 hrs in presence of topotecan by Western blot analysis; type: functional, cell-based
[51] = Drug uptake in cytoplasm of human LNCAP cells at 250 to 500 ug/ml incubated for 12 hrs followed by 3 times washout by fluorescence microscopic analysis; type: ADME, subcellular

Drug uptake [9]: Active
Drug uptake [18]: Active
Drug uptake [38]: Not Active
Drug uptake [51]: Not Active
SMILES: C/C=C1/C(=C\c2[nH]c(/C=C3N=C(/C=C4/NC(=O)C(CC)=C4C)C(C)=C/3CCC(=O)O)c(CCC(=O)O)c2C)NC(=O)C1C (stereo unspecified)
fold change (FC) (LNCaP [1]): 1.76
Activity (LNCaP [2]): Active
fold change (FC) (LNCaP [3]): 0.47
Activity (LNCaP [4]): Active
Activity (LNCaP [5]): Active
Activity (LNCaP [6]): Active
Activity (LNCaP [7]): Active
Activity (LNCaP [8]): Active
Activity (LNCaP [10]): Active
Activity (LNCaP [11]): Active
fold change (FC) (LNCaP [12]): 2.33
fold change (FC) (LNCaP [13]): 6.01
Activity (LNCaP [14]): Active
Activity (LNCaP [15]): Active
fold change (FC) (LNCaP [16]): 3.84
fold change (FC) (LNCaP [17]): 0.56
Activity (LNCaP [19]): Active
Activity (LNCaP [20]): Active
Activity (LNCaP [21]): Active
Activity (LNCaP [22]): Active
Activity (LNCaP [23]): Active
Activity (LNCaP [24]): Active
Activity (LNCaP [25]): Active
Activity (LNCaP [26]): Active
Activity (LNCaP [27]): Active
Activity (LNCaP [28]): Active
Activity (LNCaP [29]): Active
fold change (FC) (LNCaP [30]): 1.67
Activity [31]: Active
Activity (LNCaP [32]): Active
fold change (FC) (LNCaP [33]): 1.2
Ratio (LNCaP [34]): >3.5
Activity (LNCaP [35]): Active
Activity [36]: Active
Activity (LNCaP [37]): >65%
fold change (FC) (LNCaP [39]): 2.72
Activity (LNCaP [40]): Active
Activity (LNCaP [41]): Active
Activity (LNCaP [42]): Active
Activity (LNCaP [43]): Active
fold change (FC) (LNCaP [44]): 0.45
fold change (FC) (LNCaP [45]): 0.009
Activity (LNCaP [46]): inactive
fold change (FC) (LNCaP [47]): 2.23
Ratio (LNCaP [48]): >1.5
fold change (FC) (LNCaP [49]): 5.34
Activity (LNCaP [50]): Active
